Tests used:
[1] = system: dendritic cells derived from human monocytes; assay: Maturation of dendritic cells from human monocytes, surface markers by flow cytometry (Example 1); assay type: cell-based; conditions: D8, TNF-alpha 200 IU/ml
Description: Peripheral blood is taken from the subject concerned. This blood is then centrifuged for 20 minutes at 200 g so as to diminish the contamination of the peripheral blood cells by platelets. The upper part containing most of the platelets and the plasma is carefully removed before the mononucleated cells are purified by centrifuging them on a Ficoll separation gradient, the density of which is 1.077. The layer of mononucleated cells is recovered, then washed twice with PBS buffer and deposited on a gradient containing 4 discontinuous densities of Percoll in order to isolate the monocytes. This gradient is constituted by concentrations of Percoll in isotonic solution of 75% (6.5 ml), 50.5% (15 ml), 40% (3.5 ml) and 30% (3 ml) in a Dulbecco medium without magnesium nor calcium and containing 5% human serum. 75 to 100 millions of cells are thus deposited in each tube and centrifuged at 1000 g during 25 minutes at 4° C. The low density cells, principally the monocytes, are harvested at the interface between the concentrations 40% and 50.5%, and washed twice with PBS. They are then resuspended in a culture medium, then deposited on culture plates containing 6 wells at a density of 5×10^6 cells per well in a final volume of 3 ml and left to adhere for 1 hour at 37° C. This adhesion step can be replaced by an additional purification of the monocytes by means of a negative purification system using a mixture of monoclonal antibodies combining an anti-CD3, CD7, CD19, CD45A, CD56 and anti-IgG with the aid of a Macs type microbead system (Miltenyi Biotec).
The cells are then placed in culture in culture wells at 37° C. under 5% CO2. The medium which consists of RPMI contains 200 IU/ml of recombinant human GM-CSF and 500 IU/ml of recombinant human IL-4 in a final volume of 6 ml. On day 3 and day 5, the cultures are renewed by removing 3 ml and adding 3 ml of fresh medium with the cytokines. […] The cells are harvested on day 8, washed and cultivated in the absence of stimulation for a further 3 days.
At the end of the culture period, the quality of the maturation is assessed by measuring the expression of the molecules CD80, 83, 86, 14, 1a, HLA-DR at the surface of the cells.

[2] = system: CD34+ cells of human cord blood; assay: Production of dendritic cells from CD34+ cells of human cord blood, cell markers (Example 3); assay type: cell-based; conditions: TNF-α 200 IU/ml or RU 41740 10 μg/ml until D6
From the text: The experimental conditions are similar to Example 2, except the fact that the cells are derived from cord blood:
Purification: After Ficoll, the CD34+ cells represent 0.83% of the mononucleated cells (MNC).
After purification by positive selection, 18.1% of CD34+ are obtained.
Duplication: on D6, D7,D8, D10 and D12.

TNF-α
CD14, % of labelled cells ([1]; experiment a): 0.87% | CD40, MFI ([1]; experiment a): 1603 | CD54, % of labelled cells ([1]; experiment a): 97.4% | CD54, MFI ([1]; experiment a): 295 | CD80, % of labelled cells ([1]; experiment a): 62.1% | CD80, MFI ([1]; experiment a): 129 | CD83, % of labelled cells ([1]; experiment a): 84.5% | CD83, MFI ([1]; experiment a): 173 | CD86, % of labelled cells ([1]; experiment a): 98.8% | CD86, MFI ([1]; experiment a): 326 | HLA-DQ, % of labelled cells ([1]; experiment a): 84.3% | HLA-DQ, MFI ([1]; experiment a): 157 | HLA-DR, % of labelled cells ([1]; experiment a): 98.9% | HLA-DR, MFI ([1]; experiment a): 1225 | CD1a, % of labelled cells ([1]; experiment b): 0.21% | CD14, % of labelled cells ([1]; experiment b): 0.61% | CD40, % of labelled cells ([1]; experiment b): 99.6% | CD40, MFI ([1]; experiment b): 1728 | CD54, % of labelled cells ([1]; experiment b): 95.6% | CD54, MFI ([1]; experiment b): 255 | CD80, % of labelled cells ([1]; experiment b): 70.5% | CD80, MFI ([1]; experiment b): 93.5 | CD83, % of labelled cells ([1]; experiment b): 89.5% | CD83, MFI ([1]; experiment b): 196 | CD86, % of labelled cells ([1]; experiment b): 99.5% | CD86, MFI ([1]; experiment b): 273 | HLA-DQ, % of labelled cells ([1]; experiment b): 84.2% | HLA-DQ, MFI ([1]; experiment b): 183 | HLA-DR, % of labelled cells ([1]; experiment b): 99.1% | HLA-DR, MFI ([1]; experiment b): 946 | CD14, % of labelled cells ([1]; experiment c): 3.27% | CD40, % of labelled cells ([1]; experiment c): 99.3% | CD40, MFI ([1]; experiment c): 1480 | CD54, % of labelled cells ([1]; experiment c): 98.2% | CD54, MFI ([1]; experiment c): 249 | CD83, % of labelled cells ([1]; experiment c): 89% | CD83, MFI ([1]; experiment c): 166 | CD86, % of labelled cells ([1]; experiment c): 99.5% | CD86, MFI ([1]; experiment c): 284 | HLA-DR, % of labelled cells ([1]; experiment c): 99.4% | HLA-DR, MFI ([1]; experiment c): 694 | CD1a, percentage of labelled cells ([2]; D7): 4.41% | CD14, percentage of labelled cells ([2]; D7): 32% | CD16, percentage of labelled cells ([2]; D7): 2.24% | CD34, percentage of labelled cells ([2]; D7): 19.79% | CD45, percentage of labelled cells ([2]; D7): 99.84% | CD83, percentage of labelled cells ([2]; D7): 1.09% | CD86, percentage of labelled cells ([2]; D7): 11.61% | CD1a, percentage of labelled cells ([2]; D9): 23.75% | CD14, percentage of labelled cells ([2]; D9): 59.6% | CD16, percentage of labelled cells ([2]; D9): 2.16% | CD34, percentage of labelled cells ([2]; D9): 2.53% | CD45, percentage of labelled cells ([2]; D9): 99.96% | CD83, percentage of labelled cells ([2]; D9): 4.24% | CD86, percentage of labelled cells ([2]; D9): 22.23% | CD1a, percentage of labelled cells ([2]; D10): 20.63% | CD14, percentage of labelled cells ([2]; D10): 60% | CD16, percentage of labelled cells ([2]; D10): 2.11% | CD34, percentage of labelled cells ([2]; D10): 2.26% | CD45, percentage of labelled cells ([2]; D10): 99.97% | CD83, percentage of labelled cells ([2]; D10): 2.46% | CD86, percentage of labelled cells ([2]; D10): 9.23% | CD1a, percentage of labelled cells ([2]; D12): 27.9% | CD14, percentage of labelled cells ([2]; D12): 66.77% | CD34, percentage of labelled cells ([2]; D12): 0.69% | CD40, percentage of labelled cells ([2]; D12): 75.91% | CD45, percentage of labelled cells ([2]; D12): 99.85% | CD54, percentage of labelled cells ([2]; D12): 74.66% | CD83, percentage of labelled cells ([2]; D12): 0.71% | CD86, percentage of labelled cells ([2]; D12): 13.94% | HLA-DR, percentage of labelled cells ([2]; D12): 81.34% | CD1a, percentage of labelled cells ([2]; D13): 36.13% | CD14, percentage of labelled cells ([2]; D13): 57.73% | CD34, percentage of labelled cells ([2]; D13): 0.45% | CD40, percentage of labelled cells ([2]; D13): 63.35% | CD45, percentage of labelled cells ([2]; D13): 99.69% | CD54, percentage of labelled cells ([2]; D13): 61.7% | CD83, percentage of labelled cells ([2]; D13): 3.19% | CD86, percentage of labelled cells ([2]; D13): 12.78% | HLA-DR, percentage of labelled cells ([2]; D13): 73.04% | CD1a, percentage of labelled cells ([2]; D14): 34.2% | CD14, percentage of labelled cells ([2]; D14): 46.77% | CD34, percentage of labelled cells ([2]; D14): 0.38% | CD40, percentage of labelled cells ([2]; D14): 64.56% | CD45, percentage of labelled cells ([2]; D14): 99.93% | CD54, percentage of labelled cells ([2]; D14): 64.4% | CD83, percentage of labelled cells ([2]; D14): 1.22% | CD86, percentage of labelled cells ([2]; D14): 19.33% | HLA-DR, percentage of labelled cells ([2]; D14): 57.84%
